Assay results taken from US20230226005A1, “Methods of Treating, Ameliorating, Shortening Duration, and/or Reversing Symptoms and/or Complications of a Coronavirus Infection” (Yale University, priority 2020, published 2023).

Legend:
Assay type in all cases: in vivo
SARS-CoV-2 = assay: Phase IIa double-blind placebo-controlled study, camostat mesylate 200 mg four times daily for seven days: viral load (log10) by COVID-19 RT-PCR of nasopharyngeal swab and saliva; conditions: for viral load (log10) Mean / viral load (log10) Median / change in viral load from baseline, Mean / change in viral load from baseline, Median: S gene; for viral load Camostat LSMean Change (SE) / viral load change Difference (SE) between treatment groups: ANCOVA linear mixed model, n = 57; for viral load change Difference (SE) between treatment groups: placebo minus camostat
COVID-19 infection [1] = assay: Phase IIa study: gastrointestinal-family symptom score; conditions: for gastrointestinal-family symptoms, Fitzmaurice mixed effects model, Effect: Camostat vs Placebo
COVID-19 infection [2] = assay: Phase IIa study: body-family symptom score; conditions: for body-family symptoms, Fitzmaurice mixed effects model, Effect: Camostat vs Placebo
[3] = visit 3 (day 4), listed as Camostat

Structure (SMILES): CN(C)C(=O)COC(=O)Cc1ccc(OC(=O)c2ccc(NC(=N)N)cc2)cc1 [camostat, 4-[[4-[(Aminoiminomethyl)amino]benzoyl]oxy]benzeneacetic acid 2-(dimethylamino)-2-oxoethyl ester]
- viral load (log10) Mean (SARS-CoV-2; visit 2 (day 2)): 3.04 log10
- viral load (log10) Median (SARS-CoV-2; visit 2 (day 2)): 3.22 log10
- change in viral load from baseline, Mean (SARS-CoV-2; visit 3 (day 4)): −2.06 log10
- change in viral load from baseline, Median (SARS-CoV-2; visit 3 (day 4)): −1.94 log10
- viral load (log10) Mean (SARS-CoV-2; visit 3 (day 4)): 2.42 log10
- viral load (log10) Median (SARS-CoV-2; visit 3 (day 4)): 1.01 log10
- change in viral load from baseline, Mean (SARS-CoV-2; visit 4 (day 6)): −2.70 log10
- change in viral load from baseline, Median (SARS-CoV-2; visit 4 (day 6)): −2.41 log10
- viral load (log10) Mean (SARS-CoV-2; visit 4 (day 6)): 1.48 log10
- viral load (log10) Median (SARS-CoV-2; visit 4 (day 6)): 0.00 log10
- change in viral load from baseline, Mean (SARS-CoV-2; visit 5 (day 14)): −4.20 log10
- change in viral load from baseline, Median (SARS-CoV-2; visit 5 (day 14)): −4.28 log10
- viral load (log10) Mean (SARS-CoV-2; visit 5 (day 14)): 0.27 log10
- viral load (log10) Median (SARS-CoV-2; visit 5 (day 14)): 0.00 log10
- change in viral load from baseline, Mean (SARS-CoV-2; visit 6 (day 28)): −4.37 log10
- change in viral load from baseline, Median (SARS-CoV-2; visit 6 (day 28)): −4.88 log10
- viral load (log10) Mean (SARS-CoV-2; visit 6 (day 28)): 0.00 log10
- viral load (log10) Median (SARS-CoV-2; visit 6 (day 28)): 0.00 log10
- viral load Camostat LSMean Change (SE) (SARS-CoV-2; visit 2 (day 2)): −1.10 (0.30) log10
- viral load change Difference (SE) between treatment groups (SARS-CoV-2; visit 2 (day 2)): −0.01 (0.42) log10
- viral load Camostat LSMean Change (SE) (SARS-CoV-2; visit 3 (day 4)): −1.94 log10
- viral load Camostat LSMean Change (SE) (SARS-CoV-2; [3]): −1.94 (0.32) log10
- viral load change Difference (SE) between treatment groups (SARS-CoV-2; visit 3 (day 4)): −0.69 log10
- viral load change Difference (SE) between treatment groups (SARS-CoV-2; [3]): −0.69 (0.45) log10
- viral load Camostat LSMean Change (SE) (SARS-CoV-2; visit 4 (day 6)): −3.22 (0.46) log10
- viral load change Difference (SE) between treatment groups (SARS-CoV-2; visit 4 (day 6)): −0.39 (0.63) log10
- gastrointestinal-family symptoms, Fitzmaurice mixed effects model, Camostat (COVID-19 infection [1]; Day 0): 2.1 (0.2)
- gastrointestinal-family symptoms, Fitzmaurice mixed effects model, Camostat (COVID-19 infection [1]; Day 1): 2.4 (0.3)
- gastrointestinal-family symptoms, Fitzmaurice mixed effects model, Effect (COVID-19 infection [1]; Day 1): −0.4 (0.4)
- gastrointestinal-family symptoms, Fitzmaurice mixed effects model, Camostat (COVID-19 infection [1]; Day 2): 2 (0.3)
- gastrointestinal-family symptoms, Fitzmaurice mixed effects model, Effect (COVID-19 infection [1]; Day 2): −0.1 (0.4)
- gastrointestinal-family symptoms, Fitzmaurice mixed effects model, Camostat (COVID-19 infection [1]; Day 3): 1.6 (0.3)
- gastrointestinal-family symptoms, Fitzmaurice mixed effects model, Effect (COVID-19 infection [1]; Day 3): 0.1 (0.4)
- gastrointestinal-family symptoms, Fitzmaurice mixed effects model, Camostat (COVID-19 infection [1]; Day 4): 1 (0.3)
- gastrointestinal-family symptoms, Fitzmaurice mixed effects model, Effect (COVID-19 infection [1]; Day 4): 0.8 (0.4)
- gastrointestinal-family symptoms, Fitzmaurice mixed effects model, Camostat (COVID-19 infection [1]; Day 5): 0.9 (0.3)
- gastrointestinal-family symptoms, Fitzmaurice mixed effects model, Effect (COVID-19 infection [1]; Day 5): 0.5 (0.4)
- gastrointestinal-family symptoms, Fitzmaurice mixed effects model, Camostat (COVID-19 infection [1]; Day 6): 0.8 (0.3)
- gastrointestinal-family symptoms, Fitzmaurice mixed effects model, Effect (COVID-19 infection [1]; Day 6): 0.6 (0.4)
- gastrointestinal-family symptoms, Fitzmaurice mixed effects model, Camostat (COVID-19 infection [1]; Day 7): 0.7 (0.3)
- gastrointestinal-family symptoms, Fitzmaurice mixed effects model, Effect (COVID-19 infection [1]; Day 7): 0.4 (0.4)
- gastrointestinal-family symptoms, Fitzmaurice mixed effects model, Camostat (COVID-19 infection [1]; Day 8): 0.6 (0.3)
- gastrointestinal-family symptoms, Fitzmaurice mixed effects model, Effect (COVID-19 infection [1]; Day 8): 0.5 (0.4)
- gastrointestinal-family symptoms, Fitzmaurice mixed effects model, Camostat (COVID-19 infection [1]; Day 9): 0.5 (0.3)
- gastrointestinal-family symptoms, Fitzmaurice mixed effects model, Effect (COVID-19 infection [1]; Day 9): 0.5 (0.4)
- gastrointestinal-family symptoms, Fitzmaurice mixed effects model, Camostat (COVID-19 infection [1]; Day 10): 0.8 (0.3)
- gastrointestinal-family symptoms, Fitzmaurice mixed effects model, Effect (COVID-19 infection [1]; Day 10): 0.2 (0.4)
- gastrointestinal-family symptoms, Fitzmaurice mixed effects model, Camostat (COVID-19 infection [1]; Day 11): 0.5 (0.3)
- gastrointestinal-family symptoms, Fitzmaurice mixed effects model, Effect (COVID-19 infection [1]; Day 11): 0.2 (0.4)
- gastrointestinal-family symptoms, Fitzmaurice mixed effects model, Camostat (COVID-19 infection [1]; Day 12): 0.4 (0.3)
- gastrointestinal-family symptoms, Fitzmaurice mixed effects model, Effect (COVID-19 infection [1]; Day 12): 0.3 (0.4)
- gastrointestinal-family symptoms, Fitzmaurice mixed effects model, Camostat (COVID-19 infection [1]; Day 13): 0.5 (0.3)
- gastrointestinal-family symptoms, Fitzmaurice mixed effects model, Effect (COVID-19 infection [1]; Day 13): 0.1 (0.4)
- gastrointestinal-family symptoms, Fitzmaurice mixed effects model, Camostat (COVID-19 infection [1]; Day 14): 0.3 (0.3)
- gastrointestinal-family symptoms, Fitzmaurice mixed effects model, Effect (COVID-19 infection [1]; Day 14): 0.4 (0.4)
- body-family symptoms, Fitzmaurice mixed effects model, Camostat (COVID-19 infection [2]; Day 0): 17.1 (1.2)
- body-family symptoms, Fitzmaurice mixed effects model, Camostat (COVID-19 infection [2]; Day 1): 14.3 (1.5)
- body-family symptoms, Fitzmaurice mixed effects model, Effect (COVID-19 infection [2]; Day 1): −0.6 (1.7)
- body-family symptoms, Fitzmaurice mixed effects model, Camostat (COVID-19 infection [2]; Day 2): 13.6 (1.5)
- body-family symptoms, Fitzmaurice mixed effects model, Effect (COVID-19 infection [2]; Day 2): −2.1 (1.7)
- body-family symptoms, Fitzmaurice mixed effects model, Camostat (COVID-19 infection [2]; Day 3): 11.9 (1.5)
- body-family symptoms, Fitzmaurice mixed effects model, Effect (COVID-19 infection [2]; Day 3): −0.8 (1.7)
- body-family symptoms, Fitzmaurice mixed effects model, Camostat (COVID-19 infection [2]; Day 4): 8.9 (1.5)
- body-family symptoms, Fitzmaurice mixed effects model, Effect (COVID-19 infection [2]; Day 4): 0.9 (1.7)
- body-family symptoms, Fitzmaurice mixed effects model, Camostat (COVID-19 infection [2]; Day 5): 7.3 (1.5)
- body-family symptoms, Fitzmaurice mixed effects model, Effect (COVID-19 infection [2]; Day 5): 4.2 (1.7)
- body-family symptoms, Fitzmaurice mixed effects model, Camostat (COVID-19 infection [2]; Day 6): 5.2 (1.5)
- body-family symptoms, Fitzmaurice mixed effects model, Effect (COVID-19 infection [2]; Day 6): 4.4 (1.7)
- body-family symptoms, Fitzmaurice mixed effects model, Camostat (COVID-19 infection [2]; Day 7): 4.9 (1.6)
- body-family symptoms, Fitzmaurice mixed effects model, Effect (COVID-19 infection [2]; Day 7): 2.8 (1.7)
- body-family symptoms, Fitzmaurice mixed effects model, Camostat (COVID-19 infection [2]; Day 8): 3.9 (1.6)
- body-family symptoms, Fitzmaurice mixed effects model, Effect (COVID-19 infection [2]; Day 8): 3.1 (1.8)
- body-family symptoms, Fitzmaurice mixed effects model, Camostat (COVID-19 infection [2]; Day 9): 3.8 (1.6)
- body-family symptoms, Fitzmaurice mixed effects model, Effect (COVID-19 infection [2]; Day 9): 3.1 (1.8)
- body-family symptoms, Fitzmaurice mixed effects model, Camostat (COVID-19 infection [2]; Day 10): 3.3 (1.6)
- body-family symptoms, Fitzmaurice mixed effects model, Effect (COVID-19 infection [2]; Day 10): 3.1 (1.8)
- body-family symptoms, Fitzmaurice mixed effects model, Camostat (COVID-19 infection [2]; Day 11): 3 (1.6)
- body-family symptoms, Fitzmaurice mixed effects model, Effect (COVID-19 infection [2]; Day 11): 2.8 (1.8)
- body-family symptoms, Fitzmaurice mixed effects model, Camostat (COVID-19 infection [2]; Day 12): 3.8 (1.6)
- body-family symptoms, Fitzmaurice mixed effects model, Effect (COVID-19 infection [2]; Day 12): 1.6 (1.8)
- body-family symptoms, Fitzmaurice mixed effects model, Camostat (COVID-19 infection [2]; Day 13): 3 (1.6)
- body-family symptoms, Fitzmaurice mixed effects model, Effect (COVID-19 infection [2]; Day 13): 2.4 (1.8)
- body-family symptoms, Fitzmaurice mixed effects model, Camostat (COVID-19 infection [2]; Day 14): 3.2 (1.6)
- body-family symptoms, Fitzmaurice mixed effects model, Effect (COVID-19 infection [2]; Day 14): 2 (1.8)
